# Assay results from PubChem BioAssay AID2060607 (Molecular Pharmacology Branch, DTP, NCI, 2025).
# Values joined by “and” are separate entries in the source; they are usually repeats but may differ in a detail not shown here. Equal values may be shown once.
# System: 876862-298-R-J1-PDC complex spheroids, viability % test/control
# Assay: Anticancer human tumor 876862-298-R-J1-PDC patient-derived endometrial carcinoma cell line growth inhibition [CLK]
# Conditions: for viability, T/C: stronger effect = lower value
# Summary of the method: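 Multi-cell-type spheroids combined patient-derived tumor cells with HUVEC endothelial cells and human mesenchymal stem cells. Paired agents were dosed in half-log steps down from about clinical Cmax, or from 10 microM where Cmax was unknown.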
# [1] = curve of first compound, second compound 0.0316 µM
# [2] = curve of first compound, second compound 0.1 µM
# [3] = curve of first compound, second compound 0.316 µM
# [4] = curve of first compound, second compound 1 µM
# [5] = curve of first compound, second compound 3.16 µM
# [6] = curve of first compound, second compound 10 µM
# [7] = second compound 0.0316 µM, first compound 0.0316 µM
# [8] = second compound 0.0316 µM, first compound 0.1 µM
# [9] = second compound 0.0316 µM, first compound 0.316 µM
# [10] = second compound 0.0316 µM, first compound 1 µM
# [11] = second compound 0.1 µM, first compound 0.0316 µM
# [12] = second compound 0.1 µM, first compound 0.1 µM
# [13] = second compound 0.1 µM, first compound 0.316 µM
# [14] = second compound 0.1 µM, first compound 1 µM
# [15] = second compound 0.316 µM, first compound 0.0316 µM
# [16] = second compound 0.316 µM, first compound 0.1 µM
# [17] = second compound 0.316 µM, first compound 0.316 µM
# [18] = second compound 0.316 µM, first compound 1 µM
# [19] = second compound 1 µM, first compound 0.0316 µM
# [20] = second compound 1 µM, first compound 0.1 µM
# [21] = second compound 1 µM, first compound 0.316 µM
# [22] = second compound 1 µM, first compound 1 µM
# [23] = second compound 3.16 µM, first compound 0.0316 µM
# [24] = second compound 3.16 µM, first compound 0.1 µM
# [25] = second compound 3.16 µM, first compound 0.316 µM
# [26] = second compound 3.16 µM, first compound 1 µM
# [27] = second compound 10 µM, first compound 0.0316 µM
# [28] = second compound 10 µM, first compound 0.1 µM
# [29] = second compound 10 µM, first compound 0.316 µM
# [30] = second compound 10 µM, first compound 1 µM
# 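Note: spheroids exposed to drugs for 7 days before readout.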
# 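Throughout, for viability, T/C: 100% = DMSO vehicle control wells.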
smiles,measurement,setting,value
C=C(F)C(=O)N1CCN(c2nc(OCC3CCCN3C)nc3c2CCN(c2cccc4cccc(Cl)c24)C3)CC1CC#N (stereo unspecified) + CN1CCN(c2cc(C(=O)Nc3cc4cc(-c5cnn(C)c5)ccc4cn3)ccn2)CC1,IC50,[1],4840 nM
same,IC50,[2],3190 nM
same,IC50,[3],< 31.6 nM
same,IC50,[4],< 31.6 nM
same,IC50,[5],< 31.6 nM
same,IC50,[6],< 31.6 nM
same,"viability, T/C",[7],82.8%
same,"viability, T/C",[8],93.9%
same,"viability, T/C",[9],82.3%
same,"viability, T/C",[10],95.2%
same,"viability, T/C","second compound 0.0316 µM, first compound 3.16 µM",73.6%
same,"viability, T/C","second compound 0.0316 µM, first compound 10 µM",9.9%
same,"viability, T/C",[11],47.9%
same,"viability, T/C",[12],51.7%
same,"viability, T/C",[13],50.4%
same,"viability, T/C",[14],51.6%
same,"viability, T/C","second compound 0.1 µM, first compound 3.16 µM",50.4%
same,"viability, T/C","second compound 0.1 µM, first compound 10 µM",4.78%
same,"viability, T/C",[15],4.71%
same,"viability, T/C",[16],4.05%
same,"viability, T/C",[17],6.86%
same,"viability, T/C",[18],5.08%
same,"viability, T/C","second compound 0.316 µM, first compound 3.16 µM",3.01%
same,"viability, T/C","second compound 0.316 µM, first compound 10 µM",0.46%
same,"viability, T/C",[19],1.31%
same,"viability, T/C",[20],1.26%
same,"viability, T/C",[21],0.91%
same,"viability, T/C",[22],1.47%
same,"viability, T/C","second compound 1 µM, first compound 3.16 µM",1.43%
same,"viability, T/C","second compound 1 µM, first compound 10 µM",0.85%
same,"viability, T/C",[23],1.01%
same,"viability, T/C",[24],1.11%
same,"viability, T/C",[25],2.16%
same,"viability, T/C",[26],1.83%
same,"viability, T/C","second compound 3.16 µM, first compound 3.16 µM",1.72%
same,"viability, T/C","second compound 3.16 µM, first compound 10 µM",0.4%
same,"viability, T/C",[27],0.93%
same,"viability, T/C",[28],1.28%
same,"viability, T/C",[29],2.22%
same,"viability, T/C",[30],1.62%
same,"viability, T/C","second compound 10 µM, first compound 3.16 µM",1.63%
same,"viability, T/C","second compound 10 µM, first compound 10 µM",1.23%
C=CC(=O)Nc1cc(Nc2nccc(-c3cn(C)c4ccccc34)n2)c(OC)cc1N(C)CCN(C)C,"viability, T/C",compound 0.000949 µM,107% and 103%
same,"viability, T/C",compound 0.003 µM,98.7% and 109%
same,"viability, T/C",compound 0.00949 µM,100% and 103%
same,"viability, T/C",compound 0.03 µM,96.7% and 88.7%
same,"viability, T/C",compound 0.0949 µM,81% and 82.2%
same,"viability, T/C",compound 0.3 µM,46.5% and 48.2%
same,IC50,curve of compound,269 nM and 290 nM
CCN1CCN(Cc2ccc(Nc3ncc(F)c(-c4cc(F)c5nc(C)n(C(C)C)c5c4)n3)nc2)CC1 + CNC(=O)c1ccc(Nc2nc(OC3CCCC3)c3c(-c4ccc5nc(C)oc5c4)c[nH]c3n2)c(OC)c1,IC50,[1],> 1000 nM
same,IC50,[2],60.7 nM
same,IC50,[3],< 3.16 nM
same,IC50,[4],< 3.16 nM
same,IC50,[5],< 3.16 nM
same,IC50,[6],< 3.16 nM
same,"viability, T/C","second compound 0.0316 µM, first compound 0.00316 µM",76.6%
same,"viability, T/C","second compound 0.0316 µM, first compound 0.01 µM",84.1%
same,"viability, T/C",[7],69.4%
same,"viability, T/C",[8],62.5%
same,"viability, T/C",[9],59%
same,"viability, T/C",[10],49%
same,"viability, T/C","second compound 0.1 µM, first compound 0.00316 µM",46%
same,"viability, T/C","second compound 0.1 µM, first compound 0.01 µM",51.9%
same,"viability, T/C",[11],57.1%
same,"viability, T/C",[12],47.8%
same,"viability, T/C",[13],47.8%
same,"viability, T/C",[14],49.5%
same,"viability, T/C","second compound 0.316 µM, first compound 0.00316 µM",47.2%
same,"viability, T/C","second compound 0.316 µM, first compound 0.01 µM",45.2%
same,"viability, T/C",[15],49.6%
same,"viability, T/C",[16],46.4%
same,"viability, T/C",[17],45.1%
same,"viability, T/C",[18],42.8%
same,"viability, T/C","second compound 1 µM, first compound 0.00316 µM",34.7%
same,"viability, T/C","second compound 1 µM, first compound 0.01 µM",40.4%
same,"viability, T/C",[19],41.1%
same,"viability, T/C",[20],38.8%
same,"viability, T/C",[21],31.8%
same,"viability, T/C",[22],40.5%
same,"viability, T/C","second compound 3.16 µM, first compound 0.00316 µM",28%
same,"viability, T/C","second compound 3.16 µM, first compound 0.01 µM",29.1%
same,"viability, T/C",[23],27.1%
same,"viability, T/C",[24],30%
same,"viability, T/C",[25],30.1%
same,"viability, T/C",[26],35.2%
same,"viability, T/C","second compound 10 µM, first compound 0.00316 µM",25.2%
same,"viability, T/C","second compound 10 µM, first compound 0.01 µM",25.6%
same,"viability, T/C",[27],22.7%
same,"viability, T/C",[28],26.4%
same,"viability, T/C",[29],30.1%
same,"viability, T/C",[30],32.2%
